Tests used:
Assay in all cases: relative viability (nuclei count vs DMSO), 5 days (fraction); higher = more cells survive
AZD1208 + Bortezomib = compound: N[C@@H]1CCCN(c2c(/C=C3\SC(=O)NC3=O)cccc2-c2ccccc2)C1 [AZD1208] + CC(C)C[C@H](NC(=O)[C@H](Cc1ccccc1)NC(=O)c1cnccn1)B(O)O [Bortezomib] (partner 0.002 µM)
Summary of the method: (§1)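 Medians of duplicate plates are given as relative viability. That measure is the nuclei count in treated wells divided by the count in vehicle wells. Counts were taken on 4× images of lung cancer cell lines in 1536-well plates, 5 days after pin-tool dosing the day after seeding with one drug alone or a fixed anchor-drug dose plus five library-drug doses (not always all listed) in √10 steps.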

AZD1208 + AZD7762 = compound: N[C@@H]1CCCN(c2c(/C=C3\SC(=O)NC3=O)cccc2-c2ccccc2)C1 [AZD1208] + NC(=O)Nc1cc(-c2cccc(F)c2)sc1C(=O)N[C@H]1CCCNC1 [AZD7762] (partner 0.2 µM)
Summary of the method: as §1

AZD1208 + Palbociclib = compound: N[C@@H]1CCCN(c2c(/C=C3\SC(=O)NC3=O)cccc2-c2ccccc2)C1 [AZD1208] + CC(=O)c1c(C)c2cnc(Nc3ccc(N4CCNCC4)cn3)nc2n(C2CCCC2)c1=O [Palbociclib] (partner 0.5 µM)
Summary of the method: as §1

XMD14-99 + Alpelisib = compound: CN1CCN(CC1)C2=CC(=C(C=C2)NC3=NC(=C(S3)C(=O)C4=C(C=CC=C4Cl)Cl)N)OC [XMD14-99] + Cc1nc(NC(=O)N2CCC[C@H]2C(N)=O)sc1-c1ccnc(C(C)(C)C(F)(F)F)c1 [Alpelisib] (partner 2 µM)
Summary of the method: as §1

Cell Line | relative viability (AZD1208 + Bortezomib; first compound 0.08 µM) | relative viability (AZD1208 + Bortezomib; first compound 0.253 µM) | relative viability (AZD1208 + Bortezomib; first compound 0.8 µM) | relative viability (AZD1208 + Bortezomib; first compound 2.53 µM) | relative viability (AZD1208 + Bortezomib; first compound 8 µM) | relative viability (AZD1208 + AZD7762; first compound 0.08 µM) | relative viability (AZD1208 + AZD7762; first compound 0.253 µM) | relative viability (AZD1208 + AZD7762; first compound 0.8 µM) | relative viability (AZD1208 + AZD7762; first compound 2.53 µM) | relative viability (AZD1208 + AZD7762; first compound 8 µM) | relative viability (AZD1208 + Palbociclib; first compound 0.08 µM) | relative viability (AZD1208 + Palbociclib; first compound 0.253 µM) | relative viability (AZD1208 + Palbociclib; first compound 0.8 µM) | relative viability (AZD1208 + Palbociclib; first compound 2.53 µM) | relative viability (AZD1208 + Palbociclib; first compound 8 µM) | relative viability (XMD14-99 + Alpelisib; first compound 0.08 µM) | relative viability (XMD14-99 + Alpelisib; first compound 0.8 µM) | relative viability (XMD14-99 + Alpelisib; first compound 2.53 µM) | relative viability (XMD14-99 + Alpelisib; first compound 8 µM)
NCI-H460 | 1.04 | 1.63 | 1.06 | 1.13 | 0.925 | 0.844 | 0.716 | 0.643 | 0.824 | 0.7 | 0.195 | 0.19 | 0.223 | 0.15 | 0.159 | 0.36 | 0.419 | 0.431 | 0.197
LCLC-103H | 1.01 | 1.12 | 1.02 | 0.949 | 0.85 | 0.843 | 0.84 | 0.774 | 0.74 | 0.689 | 0.494 | 0.417 | 0.52 | 0.462 | 0.434 | 0.867 | 1.04 | 0.959 | 0.863
LCLC-97TM1 | 0.671 | 0.737 | 0.51 | 0.762 | 0.475 | 0.283 | 0.591 | 0.334 | 0.386 | 0.306 | 0.197 | 0.203 | 0.199 | 0.216 | 0.19 | 0.263 | 0.201 | 0.202 | 0.202
NCI-H838 | 0.873 | 0.94 | 0.714 | 0.8 | 0.692 | 0.931 | 1.02 | 0.887 | 0.993 | 1.01 | 0.21 | 0.231 | 0.209 | 0.187 | 0.201 | 1 | 0.928 | 0.904 | 0.604
NCI-H1355 | 1.29 | 1.09 | 1.15 | 1.2 | 1.04 | 0.75 | 0.836 | 0.686 | 0.732 | 0.628 | 0.396 | 0.37 | 0.372 | 0.385 | 0.318 | 0.928 | 0.893 | 0.68 | 0.657
HOP-62 | 0.827 | 1.06 | 0.724 | 0.598 | 0.507 | 0.859 | 0.794 | 0.612 | 0.66 | 0.824 | 0.483 | 0.503 | 0.431 | 0.439 | 0.469 | 0.883 | 1 | 1.04 | 0.818
NCI-H2087 | 0.827 | 1.01 | 0.846 | 0.941 | 0.909 | 1.29 | 1.45 | 1.35 | 1.46 | 1.32 | 0.257 | 0.192 | 0.276 | 0.241 | 0.219 | 1.03 | 0.801 | 0.827 | 0.549
